Laboratory results: patent US20240307310A1, “STABILIZED SOLID ORAL PHARMACEUTICAL COMPOSITION OF VARENICLINE” (LUPIN LIMITED, priority 2021, published 2024)

Experiments:
[1] = cited from earlier work; for AI Limit: FDA recommended acceptable intake limit in drug products
[2] = Analysis of nitrosamine impurities (VC09, NDEA) in drug substance, blends and tablets; assay type: physicochemical; conditions: Table 2
[3] = Regulatory acceptable intake (AI) limits for nitrosamine impurities; parameters: species or system human; conditions: determined in view of the EMA limit
Method: FDA recommends the following acceptable intake (Al) limits fir the nitrosamine impurities a s given in the below table:
The conversion of Al limit into ppm varies by product and is calculated based on a drug's maximum daily dose (MDD) as reflected in the drug label (ppm=Al (ng)/MDD(mg)).
These limits are applicable only if a drug product contains a single nitrosamine.
Apart from NDMA there is another nitrosamine impurity, N-nitroso-varenicline which is usually found in APIs as well as finished product of varenicline. As per the recent update, USFDA has provided acceptable intake limit of N-nitroso-varenicline (VC09) from 37 ng/day to 185 ng/day, in finished product of varenicline.
Additionally, European Medicines Agency (EMA) has also provided the daily acceptable intake limit for N-nitroso-varenicline impurity as 18 ng/day. In view of the above limit minimum daily intake limit for VC09 was determined as 9 ppm.

| Compound | AI Limit [1] [ng/day] | further results |
| --- | --- | --- |
| CCN(N=O)C(C)C [NIPEA, N-nitrosoisopropylethyl amine] | 26.5 |  |
| Varenicline Tartrate [Drug Substance] |  | Nitrosamines Results in ppm, VC09 ([2]; 40/75, 7 days, open): 0.20 ppm; Nitrosamines Results in ppm, VC09 ([2]; 60° C, 7 days, open): 0.27 ppm; Nitrosamines Results in ppm, VC09 ([2]; Initial (Chantix tablets: condition not given)): 0.23 ppm |
| O=NN1CC2CC(C1)c1cc3nccnc3cc12 [N-nitroso-varenicline] |  | daily acceptable intake limit ([1]; European Medicines Agency (EMA)): 18 ng/day; minimum daily intake limit [3]: 9 ppm |
| CN(CCCC(=O)O)N=O [NMBA, N-nitroso-N-methyl-4-aminobutanoic acid] | 96 |  |
| CC(C)N(N=O)C(C)C [NDIPA, N-nitrosodiisopropylamine] | 26.5 |  |
| CCN(CC)N=O [NDEA, N-nitrosodiethylamine] | 26.5 |  |
| CN(C)N=O [NDMA, N-nitrosodimethylamine] | 96 |  |
